Data from article PMC6092832, “Anti-inflammatory activities of Aedes aegypti cecropins and their protection against murine endotoxin shock” (Parasites & Vectors, 2018).
Where two headings read alike, the source gives them in different places. Where no end group is shown, it is not given here.

How the values were obtained:
Type in all cases: cell-based
[1] = tested on: LPS-stimulated mouse peritoneal macrophages
Procedure: (§1) ^aAnti-inflammatory interactions between peptide 1 and peptide 2 of AeaeCec peptides were determined by the chequerboard assay as described previously. First, 2-fold serial dilutions of peptides were prepared. Next, peptides were dissolved in PBS and added to mouse macrophages to final concentrations of 5, 2.5, 1.25, 0.625, 0.3125 µMin each well of a 96-well plate in the presence of E. coli LPS (100 ng/ml). The same volume of PBS served as a control. After incubation at 37˚Cfor 24 h, the culture supernatants of mouse macrophages were detected for the NO production (nitrite accumulation) using Griess reagent. Half maximal inhibitory concentrations (IC50) were calculated. The fractional inhibitory concentration index (FICI) was calculated for each combination using this equation: FICI = FICA+ FICB, where FICA= IC50 of peptide A in combination/IC50 of peptide A alone, and FICB= IC50 of peptide B in combination/IC50 of peptide B alone. FICI of ≤ 0.5 was interpreted as synergy, 0.5 < FICI ≤ 1.0 as additive, 1.0 < FICI ≤ 4.0 as indifferent, and FICI > 4.0 as antagonism. Data were calculated from three independent experiments and presented as mean ± SEM.
as §1, with “2” for “2 of AeaeCec peptides”, “µM in” for “µMin”, “supernatant” for “supernatants”, “assayed” for “detected”, “for” for “for the”, “≤1.0” for “≤ 1.0”

[2] = tested on: mouse peritoneal macrophages; assay: CCK-8 cytotoxic assay; details: 24 h
Procedure: Cell Counting Kit-8 (CCK-8) was used to detect the cytotoxicity of AeaeCec1-5 against mammalian cells. In brief, mouse peritoneal macrophages, human PBMCs and Vero E6 cells were seeded in 96-well plates (2×10^4 cells/well, 100 μl/well). After cells adhered to culture plate, the culture medium was transferred with a two-fold dilution series of AeaeCec1-5 beginning with 50 μM (100 μl) prepared in serum-free RPMI-1640 for mouse macrophages and human PBMCs, and serum-free DMEM for Vero E6 cells. After incubation at 37 °C for 24 h, CCK-8 solution (10 μl/well) was added for an additional 4 h incubation. The absorbance at 450 nm was recorded on a microplate reader (Epoch Etock, BioTek, Vermont, USA).
Supplementary file 13071_2018_3000_MOESM2_ESM.tif: Additional file 2: Figure S1. Cytotoxicity of Ae. aegypti cecropins against mammalian cells. a Mice peritoneal macrophages, human PBMCs and Vero E6 cells were exposed to 50 μM AeaeCec1-5, respectively. b Mice peritoneal macrophages and human PBMCs were exposed to series of two-fold AeaeCec5 dilutions ranging from 3.125 to 50 μM, respectively. (TIF 161 kb)

[3] = tested on: E. coli
Source text: MIC: minimal inhibitory concentration. These concentrations represent mean values of three independent experiments performed in duplicates. CI: clinically isolated strain.

[4] = IC50 in combination with AeaeCec1 / IC50 alone
[5] = IC50 in combination with AeaeCec2 / IC50 alone
[6] = IC50 in combination with AeaeCec3 / IC50 alone
[7] = IC50 in combination with AeaeCec5(2W→2A) / IC50 alone
[8] = IC50 in combination with AeaeCec5 / IC50 alone
[9] = IC50 in combination with AeaeCec4 / IC50 alone

| Substance | FIC [1, 4] | FIC [1, 5] | FIC [1, 6] | FIC [1, 7] | FIC [1, 8] | FIC [1, 9] | cytotoxicity ([2]; 12.5 μM) | cell death ([2]; 50 μM) | cytotoxicity ([2]; concentration below 6.25 μM) | minimal inhibitory concentrations [3] |
| --- | --- | --- | --- | --- | --- | --- | --- | --- | --- | --- |
| GGLKKLGKKLEGAGKRVFKASEKALPVVVGIKAI-NH2 [AeaeCec4] | 0.50 | 0.49 | 0.52 | 0.53 | 0.43 |  |  |  |  |  |
| GGLKKLGKKLEGAGKRVFNAAEKALPVVAGAKAL-NH2 [AeaeCec2] | 0.50 |  | 0.49 | 0.50 | 0.47 | 0.53 |  |  |  |  |
| GGLKKLGKKLEGAGKRVFNAAEKALPVVAGAKALRK [AeaeCec1] |  | 0.52 | 0.53 | 0.47 | 0.42 | 0.54 |  |  |  |  |
| GGLKKLGKKLEGVGKRVFKASEKALPVVTGYKAI-NH2 [AeaeCec3] | 0.49 | 0.52 |  | 0.51 | 0.47 | 0.50 |  |  |  |  |
| RAKFGKKLEKVGKNVFNAAKKALPVVAGYKAL-NH2 [AeaeCec5(2W→2A)] | 0.61 | 0.57 | 0.54 |  |  | 0.56 |  |  |  |  |
| RWKFGKKLEKVGKNVFNAAKKALPVVAGYKAL-NH2 [AeaeCec5] | 0.44 | 0.42 | 0.47 |  |  | 0.46 | 9.5% | 28.9% | no cytotoxicity | 1.17 to 2.34 µg/mL |
